Here are results for two compounds from PMC8671953 (Nanotheranostics, 2022).

One data set deals with GCPII. Also on record: method as in PMID 23169655, PMID 26826008. As to conditions: ref [8], [9]; cited from earlier work.
A further data set relates to EAE mice. As to conditions: cited from earlier work.
For data set [1] the following is noted: cited from earlier work.
In data set [2] the target is human recombinant GCPII enzyme (Homo sapiens, UniProt Q04609). The data set can be described thus: GCPII activity assay (IC50), NAA-[3H]-G hydrolysis. The data set is classed as biochemical. The note with it: human recombinant GCPII 40 pM, NAA-[3H]-G 30 nM, 37 °C, 20 min.
Sequence of human recombinant GCPII enzyme (Q04609 whole entry): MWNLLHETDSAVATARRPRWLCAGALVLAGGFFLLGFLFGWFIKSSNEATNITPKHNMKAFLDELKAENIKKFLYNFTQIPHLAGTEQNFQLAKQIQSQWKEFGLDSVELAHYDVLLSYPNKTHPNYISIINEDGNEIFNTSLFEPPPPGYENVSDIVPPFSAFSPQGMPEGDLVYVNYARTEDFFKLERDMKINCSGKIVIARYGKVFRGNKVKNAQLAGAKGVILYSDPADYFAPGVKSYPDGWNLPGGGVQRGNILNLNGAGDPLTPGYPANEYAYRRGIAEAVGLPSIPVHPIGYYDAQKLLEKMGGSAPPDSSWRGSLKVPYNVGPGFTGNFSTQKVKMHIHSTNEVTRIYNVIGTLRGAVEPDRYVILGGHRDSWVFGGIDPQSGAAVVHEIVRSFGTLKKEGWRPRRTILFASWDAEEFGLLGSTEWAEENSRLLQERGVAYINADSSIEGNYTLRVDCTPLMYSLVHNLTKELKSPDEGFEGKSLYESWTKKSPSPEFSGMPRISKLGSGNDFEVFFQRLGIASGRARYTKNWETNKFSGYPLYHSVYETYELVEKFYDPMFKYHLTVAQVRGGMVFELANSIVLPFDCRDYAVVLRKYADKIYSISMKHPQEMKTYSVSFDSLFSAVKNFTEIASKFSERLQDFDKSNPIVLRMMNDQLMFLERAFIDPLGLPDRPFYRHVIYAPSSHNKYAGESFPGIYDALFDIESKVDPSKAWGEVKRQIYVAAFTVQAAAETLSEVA
Description: The reactions were carried out at 37 °C for 20 minutes and stopped with ice-cold sodium phosphate buffer containing 1mM EDTA (pH 7.4, 0.1 M, 50 µL). 90 µL aliquots from each terminated reaction was then transferred to 96-well spin columns containing AG1X8 ion-exchange resin and the plate centrifuged at 990 rpm for 5 minutes using a Beckman GS-6R centrifuge equipped with a PTS-2000 rotor. NAA-[^3H]-G was bound to the resin and [^3H]-G eluted in the flow through. To ensure complete elution of [^3H]-G, columns were washed twice with formate (1 M, 90 µL). The flow through and the washes were collected and 200 µL aliquots transferred to a solid scintillator-coated 96-well plate (Packard) and dried to completion. The radioactivity corresponding to [^3H]-G was determined with a scintillation counter (Topcount NXT, Packard, counting efficiency 80%). Subsequently, IC50 curves were generated from CPM results, using both Microsoft Office Excel 2016 and IDBS's XLfit 5.5.0.5 macro embedded within Excel.

Turning to `O=C(O)CCC(CP(=O)(O)O)C(=O)O` (stereo not shown) [2-PMPA, 2-(phosphonomethyl)-pentanedioic acid], the IC50 in the data set on GCPII is […]. The “effect on EAE disease score” value in the data set on EAE mice (free 2-PMPA treatment, ref [8], [9]) is “no effect on EAE disease score”. In addition, the “minimal dose required for positive behavioral effects and alterations in brain NAAG levels” value in the data set with EAE mice (previous dose response studies, ref [9]) was […]. The clearance from circulation result in data set [1] (free drug, ref [9]) is “cleared from circulation within six hours”. In data set [1] (ref [37]), the “brain penetration (AUCbrain/AUCplasma)” value is listed as < 0.02 and the “oral bioavailability (F)” value is recorded as < 2%.
For the compound `[N-]=[N+]=NCCOCCOCCOCCOCCOCCOCCOCCOCCOCCOCCOC(=O)CCC(CP(=O)(O)O)C(=O)O` (stereo not shown) [2-PMPA-PEG-azide], in data set [2], the IC50 was determined as 1.6 nM.

As a reminder, the IC50 is the concentration that gives 50% inhibition.
